PMC3236199, “Development of Derivatives of 3, 3′-Diindolylmethane as Potent Leishmania donovani Bi-Subunit Topoisomerase IB Poisons” (PLoS ONE, 2011)

Tests used:
[1] = system: L. donovani AG83 amastigotes in Balb/c mouse peritoneal macrophages; experiment: In vitro macrophage infection, clearance of intracellular amastigotes; type: cell-based, Leishmania donovani; settings: 50 µM, 24 h, infected mouse macrophages
Source text: Balb/c mice, originally obtained from Jackson Laboratories, Bar Harbor, ME and reared in the institute animal facilities, were used for experimental purposes with prior approval of the animal ethics committee. Macrophages were isolated from mice 36 to 48 hr post injection (intraperitoneal) with 2% (w/v) hydrolyzed starch by peritoneal lavage with ice-cold phosphate-buffered saline. Cells were washed and cultured for 18–24 hr (for adherence) in RPMI 1640 (supplemented with 100 IU/ml of penicillin and […] of streptomycin) containing 10% (v/v) heat-inactivated FBS (RPMI-FBS) at 37°C with 5% CO2 in air on sterile cover glass (22 mm×22 mm) placed in disposable plates 35 mm in diameter (Tarsons India Ltd.). The culture medium was washed off and fresh RPMI-FBS was added. About 5×10^5 macrophages were maintained for proper distribution on cover glass. During the course of this study, macrophages were infected with promastigotes at a macrophage-to-parasite ratio of 1∶10 in RPMI-FBS for 6 hours to ensure entry of parasite. Following incubation, unphagocytosed parasites were removed by washing with medium, and cells were resuspended in RPMI-FBS at 37°C, 5% CO2 and then incubated for 6 hrs. Cultures were transferred to a CO2 incubator at 37°C and incubated for another 10–12 hr. Respective inhibitors were added at different concentrations (ranging from 5 µM to 50 µM) to infected macrophages and left for another 24 hr period. Cells were then fixed in methanol and stained with 2% Giemsa. Percentages of infected cells and total number of intracellular parasites were determined by manual counting in at least 200 cells using light microscope.
Primary macrophage cells were obtained from Balb/c mice peritoneal extrudates. After adherence and inactivation, these macrophage cells were infected with early passaged L. donovani AG83 promastigotes were infected to macrophages. After subsequent washing they were incubated with different concentrations (5, 10, 20 and 50 µM) of each of these inhibitors for 24 h (Fig. 3A). Macrophages were fixed and intracellular amastigotes were counted by Giemsa staining. […]
Figure 3 Effectiveness of clearance of internalized L. donovani (AG83) from in vitro infected mouse M [drawing 3] . […] Cells were fixed, stained with Giemsa and counted under bright field microscope. […] Experiments were carried out for three times and representative results are the mean ± S.D. (B) Growth of DIM resistant L. donovani axenic amastigotes were monitored in presence of increasing concentrations (2, 5, 10, 20 and 50 µM) of DIM, DPDIM, DMDIM and DMODIM for 12 h. […] Growth of the parasites treated with the compounds was expressed as percentage of the viable promastigotes compared with that of control. […]

CT DNA = experiment: Spectrofluorometric binding assay (fluorescence quenching); settings: for Kd: CT DNA 10 to 200 µM, 25°C, Scatchard analysis, read-out: dissociation constant (KD)
Experimental: Fluorescence titration was measured using Perkin Elmer, LS55, and Luminescence spectrometer. The intrinsic binding of DIM-derivatives to DNA was performed separately by fluorescence measurements at an excitation wavelength of 335 nm, 265 nm and 338 nm and emission range of 350 to 450 nm, 300 to 450 nm and 380 to 540 nm for DPDIM, DMDIM and DMODIM, respectively. Excitation and emission slit widths were 5 nm and 7.5 nm; 5 nm and 15 nm; and 5 nm and 15 nm for DPDIM, DMDIM and DMODIM, respectively. Background emission (<2%) was corrected by subtraction of spectra of blank buffer, DNA plus sample buffer and compounds plus sample buffer, respectively. Spectral titration was performed with DIM derivatives at 25°C in fluorescence buffer (20 mM Tris-HCL, pH 7.5, 50 mM NaCl and 10 mM MgCl2). CT DNA was added in increasing concentrations (10 to 200 µM), which are indicated in the legend. All the assays were performed in duplicate, titration points are corrected as described above and binding constants for DIM DNA-compound interaction were determined according to following equation: [drawing 2] (Eq–1) where ΔF = Fx−Fo, Fx and Fo representing the florescence intensity of DIM derivatives in the presence or absence of the added total DNA (St), respectively. ΔFmax is the maximum change in the fluorescence intensity. The intercept of the plot on the 1/F axis corresponding to 1/St = 0 measures the 1/Fmax, while the slope gives the estimation of the affinity constant (Ka). The dissociation constant KD = 1/Ka.
Therefore, it was of interest to determine whether DIM derivatives could interact with DNA. Fluorescence quenching assay was performed to determine the interaction between the derivatives of DIM and DNA at different concentrations of DNA (10 to 200 µM). DPDIM has fluorescence emission maximum (λem ^max) at the wavelength of 390 nm with a λex of 335 nm, whereas DMDIM has fluorescence emission maximum at a wavelength of 379 nm with a λex of 265 nm and DMODIM has fluorescence emission maximum at a wavelength of 450 nm with a λex of 338 nm. The excitation and emission slit widths were set at 5 nm and 7.5 nm for DPDIM, 5 nm and 15 nm for DMDIM; and 5 nm and 15 nm for DMODIM. Appropriate blanks corresponding to the buffer were subtracted to correct the background fluorescence. The fluorescence intensity decreases by increasing the concentration of DNA due to quenching reaction. Addition of DNA causes a slight shift of the maximum peak (λ shift) from 390 nm to 386 nm for DPDIM and from 379 nm to 374 nm for DMDIM with a concomitant decrease in fluorescence intensity (Fig. 7A and B). There is no λ shift for DMODIM (Fig. 7C). A progressive change in the fluorescence spectra of three DIM-derivatives on addition of different concentrations of DNA indicated an association between them.
Figure 7 Fluorescence quenching study of DIM derivatives-DNA interaction. (A) CT DNA concentration-dependently quenched DPDIM fluorescence at 390 nm. (B) CT DNA concentration-dependently quenched DMDIM fluorescence at 379 nm. (C) CT DNA concentration-dependently quenched DMODIM fluorescence at 450 nm. The arrow of each figure indicates the change in the emission spectra of DPDIM, DMDIM and DMODIM respectively on addition of CT DNA.

Compound: c1ccc2c(Cc3c[nH]c4ccccc34)c[nH]c2c1 [DIM, 3, 3′-diindolyl methane, reference compound]
- efficiency of amastigote killing (clearance from macrophages) [1]: 91%

Compound: c1ccc(-c2[nH]c3ccccc3c2Cc2c(-c3ccccc3)[nH]c3ccccc23)cc1 [DPDIM, 2,2′-diphenyl 3,3′-diindolyl methane]
- Kd (CT DNA): 11 µM
- affinity to DNA greater compared to DIM (CT DNA; versus DIM mother compound): 2 fold
- efficiency of amastigote killing (clearance from macrophages) [1]: 96%

Compound: COc1ccc2[nH]cc(Cc3c[nH]c4ccc(OC)cc34)c2c1 [DMODIM, 5,5′-dimethoxy 3,3′-diindolyl methane]
- Kd (CT DNA): 48 µM
- affinity to DNA less compared to DIM (CT DNA; versus DIM): ~2 fold
- efficiency of amastigote killing (clearance from macrophages) [1]: about 85%

Compound: Cc1[nH]c2ccccc2c1Cc1c(C)[nH]c2ccccc12 [DMDIM, 2,2′-dimethyl 3,3′-diindolyl methane]
- Kd (CT DNA): 63 µM
- efficiency of amastigote killing (clearance from macrophages) [1]: 92%
